# Reference: patent US20250367251A1, “SKELETON PROTECTION METHOD USING PEPTIDE” (Pell Bio-Med Technology Co., Ltd., priority 2024, published 2025)
# Non-standard residues stand in square brackets, D forms with d. Residues, ends and D or L forms follow the SMILES beside them. pGlu = O=C1CC[C@@H](C(=O)O)N1
# Experiments:
# [1] = Preliminary safety profile in AIA mice (body weight changes, observation); details: for body weight changes: oral once daily, after 1- or 2-week treatment (Week 5 or Week 6), compared with Week 4 or vehicle group, P>0.05
# Experimental: This animal study was carried out according to the adjuvant-induced arthritis (AIA) model designed by Academia Sinica, Taipei, Taiwan. Specifically, arthritis induction was performed according to the method described in Gauldie, S. D., McQueen, D. S., Clarke, C. […] In short, this animal study comprised thirty C57BL/6 mice purchased from National Laboratory Animal Center, Taiwan, which were 8 weeks old with a body weight of about 20 to 25 grams. By using a 30-gauge needle mounted on a 100 μl Hamilton syringe, said mice were respectively injected with 5 μg Complete Freund's Adjuvant (CFA) (F5881, Sigma, USA) in the right ankle joint once a week for consecutive 4 times, wherein the first injection was carried out at week 0 (day 0), and said mice were anesthetized and maintained with 2% isoflurane during the injection. The AIA model can induce long-term inflammation and swelling in unilateral anterior ankle joints in C57BL/6 mice, thereby simulating the clinical long-term chronic pain of patients with rheumatoid arthritis.
# After CFA induction, said mice were weekly weighted and scored with rheumatoid arthritis score estimation (data not shown) according to Hsieh, W. S., et al. (2017). […] The mice were assigned to 5 groups: (1) vehicle group, (2) P1 group (provided with 1 mg/kg/day peptide of SEQ ID NO: 1), (3) P3 group (provided with 3 mg/kg/day peptide of SEQ ID NO: 1), (4) P10 group (provided with 10 mg/kg/day peptide of SEQ ID NO: 1), and (5) T group (provided with 12.4 mg/kg/day tofacitinib). Said animal grouping was based on the rheumatoid arthritis scores by a random sampling mode. The drug administration from Week 4 (Day 28) to Week 6 (Day 42) was as follows: said mice received once-daily oral dosing (gavage) of 5 μL/g of body weight (bw) of a solution comprising: (1) the peptide of SEQ ID NO: 1 (1 mg/kg bw, 3 mg/kg bw or 10 mg/kg bw, dissolved in water) in P1, P3 and P10 group, respectively, (2) tofacitinib (12.4 mg/kg bw, dissolved with 0.5% carboxymethylcellulose aqueous solution) in T group, and (3) water in vehicle group. Said mice were sacrificed on Day 45. […]
# [2] = system: adjuvant-induced arthritis (AIA) model in C57BL/6 mice; assay: Adjuvant-induced arthritis (AIA) model, micro-CT of calcaneus bone (cortical surface, bone mineral density); assay type: in vivo
# Description: Scientific reports, 7(1), 8870. […] Said mice were sacrificed on Day 45.
# Each mouse was anesthetized (2.5% isoflurane, 1.0 L/min air) and the anesthetic gas was maintained during the scanning. The mouse was subjected to lay on one side on the carbon fiber half-tube bed while kept anesthetized in the micro-CT scanner (Skyscan 1076), and the right hindpaw was positioned on a cylindrical shape styrofoam holder. The mouse's paw was immobilized at the scanning midline of the scanner to eliminate any undesirable movement of the paw.
# Settings for the micro-CT scanner (SkyScan-1076; Bruker micro CT, Belgium) were as follows: isotropic voxel size: 9 μm, tube voltage: 49 kV, current: 167 μA, Al filter: 0.5 mm, and 180° scan with 0.6° rotation step […] with frame averaging of 3. Subsequently, micro CT projections were back projection-reconstructed using the NRecon software (NReconServer64 bit, Bruker, MicroCT, Belgium) and volume-rendered and visualized in 3D with the CTVox software (Bruker, MicroCT, Belgium). The images of calcaneus bone were segmented and analyzed using the CTAn software (Bruker, MicroCT, Belgium).
# GraphPad Prism 9.3.1 (GraphPad Software, USA) was used for statistical analyses and graphing. Data are presented as mean±standard deviation. The level of statistical significance was set at 5% (P<0.05) for all analyses. Data analysis of the indexes derived from the μCT images of calcaneus bone of mice was carried out, for example, One-way RM ANOVA (One-way Repeated Measures Analysis of Variance) with Tukey's post hoc test was used for data analysis of bone mineral density.
# The observation time window of μCT scanning was set before AIA induction (Week 0), at the end of induction (Week 4), and after 1 or 2 weeks' treatment (i.e., Week 5 and Week 6). According to FIG. 1A and FIG. 1B, obviously, the surface integrity of the calcaneus bone was disturbed at Week 4 (the end of induction and prior to treatment), manifested as unevenness of the cortical bone (dashed line circle, Week 4 vs Week 0).
# RAW264.7 cells = assay: Bone resorption assay (RANKL-induced, CaP-coated plate pit area); assay type: cell-based; details: 100 μM with 100 ng/ml RANKL, 7 days, p<0.001 vs RANKL group
# Experimental: This test used RANKL (receptor activator of nuclear factor kappa-B ligand) as an inducer of osteoclastic differentiation to detect whether the peptide of SEQ ID NO: 1 could inhibit osteoclast resorptive function induced by RANKL in vitro, and comprised three groups: control group, RANKL group and treatment group.
# First, RAW264.7 cells were seeded in a calcium phosphate (CaP)-coated 96-well with a density of 2×10^3 cells per well. RAW264.7 is a macrophage cell line, and RAW264.7 cells can differentiate into an osteoclast. The cells of all groups were cultivated for 7 days according to the manufacturer's instructions of Bone Resorption assay kit (Cosmo Bio). The differences between control group, RANKL group and treatment group were as follows: • (1) Control group: neither RANKL nor the peptide of SEQ ID NO: 1 was provided to RAW264.7 cells during a 7-day incubation period. • (2) RANKL group: RANKL in a concentration of 100 ng/ml was provided to RAW264.7 cells at Day 1 and incubated for 7 days. • (3) Treatment group: RANKL in a concentration of 100 ng/ml and the peptide of SEQ ID NO: 1 in a concentration of 100 μM were simultaneously provided to RAW264.7 cells at Day 1 and incubated for 7 days.
# After the 7-day incubation period, all wells of all groups were washed with 0.2 ml to 0.5 ml of 5% sodium hypochlorite to remove the cells adhered to the surface. […]
# SW982 cells = assay: SW982 cell migration measurement (wound healing experiment); assay type: cell-based; details: 10^−7 to 10^−5 μM, 24 h
# Description: It is known that fibroblast-like synoviocytes secrete inflammatory cytokines, chemokines, and matrix metalloproteinases (MMPs) and induce cell migration and invasion to damage joints and cartilage. We next examined the effect of the peptide of SEQ ID NO: 1 on SW982 cell migration through a conventional wound healing experiment. Specifically, a Culture-Insert 2 Well (ibidi) in which two cell culture reservoirs were separated by a 500 μm wall was placed on a cell culture plate surface. Both reservoirs were filled with cells suspension containing L15 culture medium and 4×10^4 SW982 cells to allow cell growth in the designated areas. After appropriate cell attachment of all SW982 cells, the Culture-Insert 2 Well was removed to create a cell-free gap of approximately 500 μm. The cell monolayer was washed with PBS buffer to remove detached cells and debris. The SW982 cells were incubated with the peptide of SEQ ID NO: 1 (10^−5, 10^−6, 10^−7 μM) in L15 culture medium or with L15 culture medium only (as control group) for 24 h in a carbon dioxide-free environment. By using direct microscopic visualization, a reference point at the bottom was created in each field, and the image of the remaining cell-free area in the identical field shot immediately after 24 h-treatment of the peptide of SEQ ID NO: 1 was measured to analyze cell migration and wound healing rates. […]
# SW982 synoviocytes = assay: Cell viability test (CCK-8) of SW982 synoviocytes; assay type: cell-based
# Experimental: Owing to the restricted lifespan of primary rheumatoid arthritis fibroblast-like synoviocytes (RA-FLS), the fibroblast-like synoviocytes (FLS) cell line SW982 synoviocytes (hereinafter referred to as SW982 cells) are well accepted as a useful in vitro model for studying the pathogenesis of RA. In short, SW982 cells were seeded in a 96-well plate at a cell density of 6,000 cells per well. After the cells were treated in the following groups, the effect of each treatment group on the viability of SW982 cells was tested by means of the cell proliferation detection kit (cell counting kit-8, CCK8; Elabscience, Catalog No: E-CK-A361) according to the manufacturer's manual. Said treatment groups were as follows: (1) Different concentrations of the peptide of SEQ ID NO: 1: SW982 cells were treated with the L15 culture medium containing 10^−6, 10^−7, 10^−8, 10^−9 μM of the peptide of SEQ ID NO: 1 for 24 hours; (2) IL-1β stimulation group: SW982 cells were stimulated with the culture medium containing 1 ng/mL IL-1β for 24 hours to simulate the inflammatory synoviocytes of rheumatoid arthritis; (3) Co-treatment group: SW982 cells were treated with culture medium containing 10^−9 μM of the peptide of SEQ ID NO: 1 and 1 ng/mL of IL-1β for 72 hours. The SW982 cells in said treatment groups were all cultured in a carbon dioxide-free environment. In addition, SW982 cells were simply cultured in L15 medium for 24 hours, as the control group. This test uses 2-(2-methoxy-4-nitrophenyl)-3-(4-nitrophenyl)-5-(2,4-disulfophenyl)-2H-tetrazolium sodium salt (WST-8) from CCK-8 kit to react with the dehydrogenase in viable cells, so that the color of all treatment groups containing WST-8 turned from pink to orange. By detecting the absorbance value at 450 nm, the activity of dehydrogenase was determined to calculate the number of viable cells.
Compound,body weight changes [1],"bone mineral density (BMD) of calcaneus bone ([2]; 12.4 mg/kg/day oral, 1- or 2-week treatment, Week 5/6 vs Week 4, P>0.05)","bone contour / cortical surface of calcaneus bone (micro-CT) ([2]; 12.4 mg/kg/day oral, Week 6 vs Week 4)",pit area (calcium phosphate resorption) relative to RANKL group (one-fold) (RAW264.7 cells),observation of treated mice (signs of toxicity) ([1]; oral once daily Week 4 to Week 6),lateral migration of SW982 cells (SW982 cells),"IL-1β-induced proliferation of SW982 cells (SW982 synoviocytes; 10^−9 μM with 1 ng/mL IL-1β, 72 hours)","proliferation of SW982 cells (SW982 synoviocytes; 10^−9 to 10^−6 μM, 24 hours)","bone contour / cortical surface of calcaneus bone (micro-CT) ([2]; 1 mg/kg oral once daily, Week 4 to Week 6)","bone mineral density (BMD) of calcaneus bone ([2]; 1 mg/kg oral, 1- or 2-week treatment, Week 5/6 vs Week 4, P>0.05)","bone contour / cortical surface of calcaneus bone (micro-CT) ([2]; 3 mg/kg oral once daily, Week 4 to Week 6)","bone mineral density (BMD) of calcaneus bone ([2]; 3 mg/kg oral, 1- or 2-week treatment, Week 5/6 vs Week 4, P>0.05)","bone contour / cortical surface of calcaneus bone (micro-CT) ([2]; 10 mg/kg oral once daily for 2 weeks, Week 6 vs Week 4)","bone mineral density (BMD) of calcaneus bone ([2]; 10 mg/kg oral, after 1-week treatment)","bone mineral density (BMD) of calcaneus bone ([2]; 10 mg/kg oral, after 2 week treatment, Week 6 vs Week 4, P<0.05)","proliferation of SW982 cells (SW982 synoviocytes; 1 ng/mL, 24 h)"
"C[C@@H]1CCN(C(=O)CC#N)C[C@@H]1N(C)c1ncnc2[nH]ccc12 [Tofacitinib, reference compound]",no significant difference in body weight changes,neither 1- nor 2-week treatment of Tofacitinib was able to revert the BMD decrement,did not reduce the extent of surface roughness or the distortion of the bone contour,,,,,,,,,,,,,
"CC(C)[C@H](NC(=O)[C@H](C)NC(=O)[C@@H](NC(=O)[C@H](CCC(=O)O)NC(=O)[C@@H]1CCC(=O)N1)[C@@H](C)O)C(=O)N[C@@H](CO)C(=O)N[C@@H](CO)C(=O)N[C@@H](Cc1c[nH]cn1)C(=O)N[C@@H](CCC(=O)O)C(=O)N[C@@H](CCC(N)=O)C(=O)N[C@@H](CC(=O)O)C(=O)O [peptide of SEQ ID NO: 1, Glp Glu Thr Ala Val Ser Ser His Glu Gln Asp] ([pGlu]ETAVSSHEQD-OH)",no significant difference in body weight changes,,,about 0.5 fold,"no signs of irritability, loss of vigor, or any skin or hair changes",significantly reduced the lateral migration of SW982 cells,significantly suppress the IL-1β-induced proliferation of SW982 cells,effectively inhibit the proliferation of SW982 cells,no benefits in restoring the bone contour,no significant changes in BMD,no benefits in restoring the bone contour,no significant changes in BMD,much smoother cortical surfaces with fewer spiky projections of calcaneus bone,no increase in BMD,significant increases in BMD,
IL-1β: cytokine used to stimulate SW982 cells to simulate the inflammatory synoviocytes of rheumatoid arthritis [reference compound],,,,,,,,,,,,,,,,dramatically enhanced the proliferation of SW982 cells
